In PubChem BioAssay AID463229 (Broad Institute, 2010) one finds AC50 data, which are given here for 68 compounds.

Calls of active or inactive are those of the source.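 Rule for the calls: active = compounds raising the signal whose fitted half-maximal concentration is at or below their top tested dose (cut at about 25 µM in these data); inconclusive = flat fit at 30 to 70% activity, or a poor fit; inactive = the rest.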

This assay concerns INS-1E rat beta cells, no cytokines, CellTiter-Glo ATP, 48 h. The assay is described as follows: ATP level change in INS-1E without cytokines, dose response, counter-screen for beta-cell apoptosis protection project, INS-1E rat cells, ATP luminescence, cherry pick (AID 463229).
With `Cc1ncc(CO)c(/C=N/Nc2ccc(C(F)(F)F)cn2)c1O`, the AC50 is 5.17 µM. For the compound `COc1ccccc1C(=O)Nc1nc2ccccc2[nH]1`, the AC50 is 1.22 µM. With `O=C(CSc1nc2ccccc2c(=O)n1-c1ccccc1)N1CCc2ccccc2C1`, the half-maximal activity concentration (AC50) is 3.16 µM.

As to `O=C(N/N=C/c1cc(Cl)ccc1O)c1ccccc1Br`, the concentration at half-maximal activity (AC50) was 8.9 µM. For `Oc1ccccc1/C=N/Nc1nccnc1Cl` the value was 3.97 µM; for `Oc1[nH]c2ccccc2c1N=NC(=S)N1CCOCC1`, 3.98 µM. For the compound `CC(C)Nc1ccc(Nc2ccnc3cc4ccccc4cc23)cc1`, the AC50 is 7.2 µM.

Take `O=S(=O)(c1ccc(Cl)cc1)N1CCN(c2ncnc3sccc23)CC1`: the AC50 was 6.65 µM. The result for `CCOC(=O)c1sc(NC(=O)c2c(C)nn(Cc3ccccc3)c2C)cc1C` reads > 26 µM (inactive). The result for `Cc1cc(/C=C2/SC(=S)N(c3ccc([N+](=O)[O-])cc3)C2=O)c(C)n1-c1cccnc1` reads 0.912 µM. For `CCOC(=O)C(C(C)=O)c1c(Br)c(O)c(O)c2c(C(=O)c3ccc(C)cc3)coc12` (stereo not drawn) the value was 2.9 µM; for `CCOC(=O)c1ccc(NC(=O)c2cccnc2)cc1`, 6.64 µM. In the case of `On1onc2c3cc(-c4ccccc4)nc3ccc21`, the concentration at half-maximal activity (AC50) is 5.23 µM. For `Nc1ccc(Br)cc1-c1nc2ccccc2[nH]c1=O` the value was 1.32 µM.

Turning to `COc1ccc(CC(=O)Nc2nc(-c3ccc(F)c(F)c3)cs2)cc1OC`, the AC50 is 7.2 µM. The result for `O=C(N/N=C/c1cc(Cl)ccc1O)c1cccnc1` reads 8.72 µM; that for `CC[N+]1=C(C)C(C)(C)c2cc(C)ccc21`, 8.15 µM.

On to `CC(=O)Nc1ccccc1OCC(=O)c1cc(C)n(Cc2cccs2)c1C`, for which the AC50 was 1.01 µM. The result for `CCCCOc1ccc(-c2cc(C(=O)NNC(=S)NCC)c3ccccc3n2)cc1` reads 6.66 µM; that for `COC(=O)c1ccc2c(c1)C(C)(C)C(/C=C/c1ccc(OC)c(OC)c1OC)=[N+]2C`, 2.16 µM. The result for `CCCOc1ccc(/C=N/NC(=S)Nc2ccccc2[N+](=O)[O-])c(O)c1` reads 7.44 µM; that for `CCc1c(C)sc2nc(C(C)C)nc(SCC(=O)N3CCc4ccccc4C3)c12`, 2.08 µM; that for `O=C1C(Cl)=C(NCCN2CCCCC2)C(=O)c2ccccc21`, 14.1 µM.

As for `COc1ccc(N/N=C/c2c(C(=O)O)ccc3ccccc23)cc1`, the half-maximal activity concentration (AC50) is 4.35 µM. The result for `CCCCOCCCNc1ncnc2c1[nH]c1ccccc12` reads 2.24 µM. For `Cc1ccc(/C=N/NC(=O)c2c(-c3ccccc3)noc2C)c(O)c1` the value was 7.91 µM; for `O=C(Nc1ccc(-c2csc(Nc3cccc(C(F)(F)F)c3)n2)cc1)c1cc([N+](=O)[O-])cc(C(F)(F)F)c1`, 7.63 µM.

As for `Oc1c(CN2CCN(c3ccccc3)CC2)cc(Br)c2cccnc12`, the AC50 is 5.87 µM. As to `CCCCCCn1ccc(=N)cc1`, the half-maximal activity concentration (AC50) was 3.12 µM. For `O=C(Nc1ccccc1Cl)/C(Cl)=C(\Cl)S(=O)c1ccccc1` (stereo not drawn) the value was 2.9 µM.

In the case of `Fc1cc(F)c2nc(Nc3nc4c(F)cccc4s3)sc2c1`, the AC50 was 4.95 µM. The result for `Cc1nn(-c2nc3ccccc3[nH]2)c(=O)c2ccccc12` reads 1.31 µM; that for `O=C1C(Cl)=C(Nc2ccc3cn[nH]c3c2)C(=O)c2ccccc21`, 4.47 µM.

For the compound `O=C(N/N=C/c1cc(Cl)ccc1O)C(=O)Nc1ccccc1OC(F)(F)C(F)F`, the concentration at half-maximal activity (AC50) was 8.81 µM. Take `COc1ccc(-n2c(CNc3ccc(C)cc3)nnc2SCC(=O)Nc2nc(-c3ccccc3)cs2)cc1`: the half-maximal activity concentration (AC50) is 12.7 µM. The result for `Cc1c(C(=O)N/N=C/c2c(O)ccc3ccccc23)nnn1-c1nonc1N` reads 2.18 µM; that for `Oc1c(N=Nc2ccccn2)ccc2ccccc12`, 1.86 µM. The result for `CCN1C/C(=C/c2ccc(OC)c(O)c2)C(=O)/C(=C/c2ccc(OC)c(O)c2)C1` reads 4.92 µM; that for `CC[C@H](C)Cc1cn([C@@H](CCCCNC(=O)OC(C)(C)C)C(=O)NCCCCCCCCCCC(=O)N2CCN(C(=O)OC(C)(C)C)CC2)nn1`, 20.2 µM; that for `Cc1ccccc1OCc1n(CC(=O)OC2CC(C)CCC2C(C)C)c2ccccc2[n+]1C` (stereo not drawn), 4.05 µM. The result for `CCN(CC)c1ccc(/C=N/NC(=O)c2ccoc2C)c(O)c1` reads 2.04 µM; that for `Cc1ccc(C2CC(c3ccc(C)cc3)n3nc(N)nc3N2)cc1` (stereo not drawn), 17.9 µM. With `COc1ccc(C(CCNCc2ccc(OC(C)C)cc2)c2ccccc2OC)cc1` (stereo not drawn), the half-maximal activity concentration (AC50) was 7.84 µM.

For the compound `N=c1c2c(n(Cc3ccc(Cl)cc3Cl)c3c1CCC3)CCCC2`, the concentration at half-maximal activity (AC50) is 3.99 µM.

As for `NC1=NC[C@H](Cc2ccccc2)N1CCCCC1CCCCC1`, the concentration at half-maximal activity (AC50) is 6.91 µM.

Take `COc1cccc(N=Nc2ccc(O)c3ncccc23)c1`: the AC50 is 6.47 µM.

Take `CCCCCCCCn1c(=O)c(C(=O)OC)c(N)c2ccccc21`: the half-maximal activity concentration (AC50) is 4.89 µM. For `Cc1ccc2nc(NC(=O)/C=C/c3ccc4c(c3)OCO4)sc2c1` the value was 7.35 µM; for `O=[N+]([O-])c1cc(/C=N/Nc2nc3ccccc3[nH]2)c(O)cc1O`, 2.01 µM. For `C#CCOCCOCCOCCNc1nc(N2CCN(C(=O)CCCCCCCCCCNC(=O)[C@@H](CCSC)n3cc(CCO)nn3)CC2)nc(N2CCN(C(=O)CCCCCCCCCCNC(=O)[C@H]([C@@H](C)CC)n3cc(CCCCCN)nn3)CC2)n1` the value was 12.9 µM; for `Cc1ccc(NS(=O)(=O)c2cc([N+](=O)[O-])ccc2N/N=C/c2sc(N3CCOCC3)nc2-c2ccccc2)c(C)c1`, 11.9 µM; for `COc1ccc(NS(=O)(=O)c2ccc(-c3coc(C)n3)cc2)cc1OC`, 4.39 µM. The result for `CCOC(=O)c1cccc(-[n+]2c(-c3ccccc3)cc(-c3ccccc3)cc2-c2ccccc2)c1` reads 3.59 µM; that for `COc1ccc(Cn2c(SCc3cc(C)ccc3C)nc3cc(OC)c(OC)cc3c2=N)cc1`, 7.22 µM.

Take `O=C(C#Cc1ccccc1)c1ccco1`: the AC50 is 7.8 µM. For the compound `CC(C)(C)c1ccc(C(O)CCCN2CCC(C(O)(c3ccccc3)c3ccccc3)CC2)cc1` (stereo not drawn), the half-maximal activity concentration (AC50) is 8.16 µM.

On to `CCCCC(=O)NC(c1ccc(N(C)C)cc1)c1ccc2cccnc2c1O` (stereo not drawn), for which the AC50 was 1.6 µM. On to `CN(C1=C(NC(=O)c2ccccc2)C(=O)c2ccccc2C1=O)C1CCS(=O)(=O)C1` (stereo not drawn), for which the AC50 is 4.84 µM.

In the case of `COc1ccc(-c2csc(NC(=O)c3ccccc3NS(=O)(=O)c3ccc(F)c(F)c3)n2)cc1`, the half-maximal activity concentration (AC50) was 3.52 µM. The result for `CCCC12C(=O)C(C)(C(c3ccccc3)=C1c1ccccc1)C1C(=O)N(c3ccc(C)cc3)C(=O)C12` (stereo not drawn) reads 4.4 µM.

On to `CCOC(=O)c1cnc(-n2nc(C)cc2C)nc1NNc1cc(C)nc(-c2ccccc2)n1`, for which the concentration at half-maximal activity (AC50) was 7.19 µM. The result for `O=C(OCn1ncc(Br)c(Br)c1=O)c1ccccc1Cl` reads 4.55 µM; that for `Cc1cc([N+](=O)[O-])c2ccccc2[n+]1[O-]`, 0.454 µM; that for `Cc1ccn2c(Nc3ccccc3)c(-c3ccccn3)nc2c1`, 7.4 µM. For `Cn1nc(-c2ccc(Cl)cc2)nc2c(=O)n(C)c(=O)nc1-2` the value was 0.508 µM; for `Cc1cc(C)n(-c2nc(Nc3ccccc3C(F)(F)F)nc(-n3nc(C)cc3C)n2)n1`, 6.87 µM; for `CCCCCCCCCCCCCCCC[N+](C)(C)CCN(Cc1ccc(OC)cc1)c1ncccn1`, 4.23 µM. In the case of `COc1ccc(-n2c(-c3ccc(Br)cc3)c[n+]3c2CCc2ccccc2-3)cc1`, the AC50 is 1.86 µM.
